Test: in vitro
Settings: human, microsomes

Row | half-life [min] | Compound
1 | 2.5 | CCCN(CCC)c1c(C)nc(-c2c(C)cc(C)cc2OC)n(C)c1=O
2 | 1.8 | CCCN(CCC)c1c(C)nc(-c2c(OC)cccc2OC(F)F)n(CC)c1=O
3 | 2.3 | CCCN(CCC)c1c(C)nc(-c2ccc(OC)cc2OC)n(CCC)c1=O
4 | 21.6 | CCCN(CCC)c1c(C)nc(-c2c(OC)cccc2OC(F)F)nc1O
5 | 15.5 | CCCN(CCC)c1c(C)nc(-c2c(C)cc(C)cc2OC)nc1O
6 | 1.3 | CCCN(CCC)c1c(C)nc(-c2ccc(OC)cc2OC)n(CCOC)c1=O
7 | 9.4 | CCCN(CCC)c1c(C)nc(-c2ccc(OC)cc2OC)nc1O
8 | 13.3 | CCCN(CCC)c1c(C)nc(-c2c(OC)cccc2OC)nc1O
9 | 2.1 | CCCN(CCC)c1c(C)nc(-c2c(C)cc(C)cc2OC)n(C(C)C)c1=O
10 | 7.5 | CCCN(CCC)c1c(C)nc(-c2c(C)cc(C)cc2C)nc1O
11 | 1.5 | CCCN(CCC)c1c(C)nc(-c2ccc(OC)cc2OC)n(CC2CC2)c1=O

Further lines, the compound ahead of its results:

Row | Compound | half-life [min]
12 | CCCN(CCC)c1c(CC)nc(-c2c(C)cc(C)cc2OC)n(CC)c1=O | 2.3
13 | CCCN(CCC)c1c(C)nc(-c2c(C)cc(C)cc2OC)n(CC(F)(F)F)c1=O | 3.4
14 | CCCN(CCC)c1c(C)nc(-c2c(C)cc(C)cc2C)n(CCN2CCCC2)c1=O | 4.2
15 | CCCN(CCC)c1c(CC)nc(-c2c(C)cc(C)cc2OC)[nH]c1=O | 8.1
16 | CCCN(CCC)c1c(C)nc(-c2c(C)cc(C)cc2C)n(C)c1=O | 4.6
17 | CCCN(CCC)c1c(C)nc(-c2c(C)cc(C)cc2OC)n(CCC)c1=O | 3
18 | CCCN(CCC)c1c(C)nc(-c2ccc(Cl)cc2Cl)n(CC)c1=O | 1.9
19 | CCCN(CCC)c1c(C)nc(-c2c(C)cc(C)cc2OC)n(CCF)c1=O | 3
20 | CCCN(CCC)c1c(C)nc(-c2c(C)cc(C)cc2C)n(CC)c1=O | 3.6

Source: ChEMBL document CHEMBL1146617, “2-Aryl-3,6-dialkyl-5-dialkylaminopyrimidin-4-ones as novel crf-1 receptor antagonists” (Bioorg Med Chem Lett, 2003)
